Experimental data published in patent US12082584B2, “BOC-butenolide, an antifouling compound that has potent ability to inhibit the settlement of marine invertebrate larvae” (The Hong Kong University of Science and Technology, priority 2021, dated 2024).

What was measured:
[1] = Stability of BOC-butenolide; type: physicochemical; conditions: compared to butenolide
Experimental: The stability of BOC-butenolide was measured by the concentration changes of BOC-butenolide in ASW throughout 3 months. The starting nominal concentration of BOC-butenolide was 200 ppm. At every time point, 5 mL of the solution was drawn and mixed with 10 mL dichloromethane (DCM). The DCM fraction with the analyte was dried under nitrogen gas, redissolved reconcentrated in 1 mL of methanol and subjected to above HPLC analysis.

Hydroides elegans = assay: Anti-larval settlement bioassay of H. elegans larvae (settlement and toxic effects); type: in vivo
Experimental: Adult H. elegans colonies were collected from a fish farm at Yung Shue O, Hong Kong (22°24′N, 114°21′E) from March to April 2019. The adults were kept in a water tank with running seawater at the Coastal Marine Laboratory (the Hong Kong University of Science and Technology) for no more than 3 days before experimental use. The larvae were collected according to the methods described by Qian and Pechenik (1998). The tube of the adults was gently cracked with forceps to release the gametes. Oocytes were then mixed with the sperm and transferred to a new container with 500 mL FSW for fertilization. Larvae were reared on microalga Isochrysis galbana (Tahitian strain) after hatching. The seawater culture medium was replaced with fresh FSW and algae every day, and the trochophore-stage larvae reached the competent stage after 5 d of incubation at around 25° C.
The test compounds were dissolved with a small amount of DMSO. The test compounds were used at six different concentrations with a 2-fold serial dilution from 100 ppm to 3.125 ppm. The same amount of DMSO was used as the negative control for all testing concentrations. Approximately 10±2 individuals of H. elegans larvae were put into each well of a 24-well polystyrene culture plate that contained 2 mL of FSW with different concentrations of test solution. Approximately 10^−4 molarity of 3-isobutyl-1-methylxanthine was added into each well as an inducer to induce the settlement of H. elegans larvae (Xu et al., 2010). The plates were then incubated at 25° C. in darkness. After 24 h, the number of settled and swimming larvae were counted using Leica MZ6 microscope, and possible toxic effects were also noted.

[2] = Antifoulant release rate from PCL-PU coatings in artificial seawater (HPLC); type: physicochemical
Experimental: (§1) The polymer/antifoulant coatings in subject invention were prepared using the solution casting method described by Ding et al. 2018. The coating was prepared by dissolving poly(ε-caprolactone) based polyurethane (PCL-PU) and BOC-butenolide, in different proportions (i.e. 95 wt % polymer and 5 wt % antifoulant for 5% antifoulant coating), in xylene with vigorous stirring until all solids have dissolved to form a uniform solution. The solution was applied onto the surface of the panels, either epoxy panel (25 mm×75 mm) for release rate determination or PVC panels (53 mm×125 mm) for field test, and the panels were then placed under room temperature for all solvent to evaporate and form a continuous coating.
The release rate of BOC-butenolide was determined by HPLC for quantification. The polymer/antifoulant coatings were prepared on an epoxy panel (25 mm×75 mm). The coated panels were then put into ASW. At certain time points (day 1, 8, 15, 22, 29, 50, 71, 92 after immersion onto ASW), the panels were transferred to individual containers with 100 mL of fresh ASW. […]

Balanus amphitrite = assay: Anti-larval settlement bioassay of barnacle cyprids (settlement and toxic effects); type: in vivo; conditions: for settlement rate: cyprids
Experimental: Adult A. amphitrite colonies were collected from Tso Wo Hang Pier (22°23′32.1″N 114°17′18.7″E), Hong Kong, from April to June 2018. The adults were kept in a water tank with running seawater at the Coastal Marine Laboratory (the Hong Kong University of Science and Technology) for no more than a week before experimental use. Adults were induced under light sources for 1 h to hatch and the larvae were obtained using the method described previously by Harder et al. (2001), which is hereby incorporated by reference in its entirety. The nauplii larvae newly released from the adults were reared on diatom Chaetoceros gracilis Schütt. The seawater culture medium was replaced with fresh FSW and algae every day, and the nauplii reached the competent stage, known as cyprid, after 4 d of incubation at around 28° C.
The test compounds were dissolved with a small amount of DMSO. The test compounds were used in six concentrations from 100 ppm to 3.125 ppm with 2-fold serial dilution. The same amount of DMSO was used as the negative control for all testing concentrations. Approximately 20±2 individual A. amphitrite cyprids were placed into each well of the 24-well polystyrene culture plate containing 2 mL of FSW and were subjected to different treatments. For all treatments and controls, three replicates were performed. The plates were then incubated at 25° C. in darkness. After 48 h, the number of settled and swimming larvae were counted using Leica MZ6 microscope, and possible toxic effects were also noted.

fouling organisms = assay: Field test of coated PVC panels immersed in seawater; type: in vivo; conditions: PCL-PU coating
Experimental: as §1
The field tests were conducted at a fish farm in Yung Shue O, Hong Kong (114°21′E, 22°24′N) from January to March 2018. PVC panels (53 mm×125 mm) covered with coatings were immersed in seawater at a depth of 1 m from surface. The panels were retrieved once every month to be washed gently with seawater to remove dirt and photographed before being placed back in the sea. The antifouling potential of different panels was compared to determine the efficiency of the coatings. […] The percentage of area covered by foulers was calculated from the ratio of total fouling area to the panel area in which the area was highlighted by threshold function in ImageJ. […]

CC(C)(C)OC(=O)NCCCCCC1C=CC(=O)O1 (stereo not shown) [BOC-butenolide, Tert-butyl (5-(5-oxo-2,5-dihydrofuran-2yl)pentyl)carbamate]
stability [1]: increased | settlement rate (Hydroides elegans; 3.125 ppm, 24 h): up to 80% | toxicity (larval death rate) (Hydroides elegans; 25 ppm and below): did not show any toxicity | settlement rate (Hydroides elegans; 25 ppm, 24 h, significant difference with control): around 20% | larval settlement (Hydroides elegans; 50 and 100 ppm, 24 h): no larval settlement | death (Hydroides elegans; 50 ppm): around 10% | initial release rate ([2]; 10 wt % samples in PCL-PU coating): 150 μg cm^−2 day^−1 | time the coating can still release BOC-butenolide ([2]; PCL-PU coating): at least 2 months | settlement rate (Balanus amphitrite; 3.125 ppm, 48 h): around 70% | toxicity (larval death rate) (Balanus amphitrite; 25 ppm and below): did not show any toxicity | settlement rate (Balanus amphitrite; 25 ppm, 48 h): around 3% | attachment of barnacle cyprids (Balanus amphitrite; 50 to 100 ppm, 48 h): inhibits the attachment | AF ability to resist the attachment of the fouling organisms (fouling organisms): relatively good AF ability
